Marks after values point to notes of the source that are not given here.
Key:
KK-Ay mice = assay: Serum metabolic parameters in high-fat diet fed diabetic KK-Ay mice; assay type: in vivo, mouse; conditions: 10 mg/kg for 14 days, vehicle 253 ± 11
Text: (§1) KK-Ay mice (KK/Upj-Ay/J) are animal models with moderate obese and diabetes with insulin resistance. KK-Ay mice develop hyperglycemia, hyperinsulinemia, glucose intolerance and obesity as well as fat accumulation in liver by eight weeks of age. Pancreatic islets are hypertrophied and the β-cells are degranulated. db/db mice (BKS.Cg-Dockr+/+ Lepr^db/Jnju) are animal models of type II diabetes. They have the phenotype of insulin resistance. These model mice were used to detect the functions of our compounds on metabolic diseases.
(§2) 8-10 weeks age mice were maintained as example 4, and fed with high-fat diet (Research Diets, D12492). Mice were i.p. injected with compounds once daily for 7, 10, 11 or 14 days as indicated in each table. After the last compounds injection, mice were fasted for 6 hours with free access to water, and then sacrificed. Part of each liver was fixed in 4% paraformaldehyde for H&E staining, and other liver tissues were stored in liquid nitrogen for enzyme activity measurement and gene expression analysis by RT-PCR. The serums were collected to measure metabolic parameters, including serum glucose, insulin, cholesterol, free fatty acid (FFA) and triglyceride levels. Serum glucose was analyzed using glucose oxidase method (Applygen, Beijing, China). The blood glucose in Table 11 was measured with Berenger blood glucose test strips (B/BRAUN, German) from blood by cutting mice tail after the 6th injection and following fast for 16 hours. Serum cholesterol and FFA were analyzed using Cholesterol Assay Kit and FFA Assay Kit (Bioassay Systems, USA; Nanjing Jiancheng Bioengineering Institute, China; FFA ELISA, R&D, USA), respectively. Serum triglyceride was analyzed using Triglyceride Assay Kit (Bioassay Systems, USA; WAKO Chemicals Inc., Japan; Applygen, Beijing, China). Liver triglyceride was analyzed using Tissue triglyceride assay kit (Applygen, Beijing, China). Serum insulin levels were measured by the Ultra Sensitive Mouse Insulin ELISA Kit (Crystal Chem. Inc., USA). RNA was isolated using Tissue RNA kit (Omega Bio-Tek, GA). The first strand cDNA were obtained by TAKARA reverse transcription kit. Real-time quantitative PCR were performed on a CFX96™ Real-Time PCR Detection System (Bio-Rad) using SYBR Premix Ex Taq™ (TAKARA). Relative mRNA expression levels were normalized to actin levels.

[1] = system: mice with APAP-induced liver injury; assay: Acetaminophen (APAP)-induced liver injury in mouse; assay type: in vivo
Text: Methods: Acetaminophen (APAP)-induced liver injury in mouse is a commonly used model to study drugs protecting liver. Overdose of APAP causes liver injury by inducing the production of reactive oxygen species and reactive nitrogen species, and excessive consumption of reductive substances such as antioxidant glutathione (GSH), leading to the reduction of GSH in vivo, and the following upregulation of the activities of the aspartate aminotransferase (AST), the alanine aminotransferase (ALT) and the lactate dehydrogenase (LDH), which will result in liver inflammation and necrosis. In this example, the APAP-induced liver injury was used to detect the protection and repair functions of our compounds in liver injury.
One-year or 8-week age mice were maintained under environmentally controlled conditions with free access to standard chow diet and water. Animal experiments were conducted in the barrier facility of the Laboratory Animal Center, Xiamen University, approved by the Institutional Animal Use and Care Committee of Xiamen University, China.
Compounds were solved with DMSO and then prepared to work concentration with 40% HBC (2-hydroxypropyl-β-cyclodextrin) in which the final work concentrations of compounds are 5 mg/kg body weight, 10 mg/kg or 20 mg/kg in 100 μl injection volume and the concentration of DMSO is 10%. Compounds were intraperitoneal (i.p.) injected once daily for five days. For Feroline and Tschimganine, one-year age mice were used in the experiment. For other compounds, 8-week age mice were used. […] For Tschimganine, 20 mg/kg dose of compound was administered to mice. For other compounds, 5 mg/kg dose of compounds were administered to mice. Six hours after the fifth injection, 500 mg/kg body weight of APAP solved in PBS was i.p. injected to the mice. 24 hours later, mice were sacrificed. Part of each liver was fixed in 4% paraformaldehyde, and the liver histology characterization was analyzed by haematoxylin and eosin (H&E) staining with paraffin-embedded sections by standard procedures. Other liver tissues were collected for detecting the GSH levels, and the mRNA expression of genes involved in liver repairing, such as GPX1 and UGT1a1, by RT-PCR. The serums were collected to measure enzymes activities including AST, ALT and LDH. For the synthetic derivatives, ALT and GSH were selected as indicating markers for the function of these compounds.

[2] = Clearance of superoxide anion radical in vitro; conditions: method of CN 102813683 B, p<0.01
[3] = system: mouse embryonic fibroblasts (MEFs); assay: GSH levels in mouse embryonic fibroblasts (MEFs); assay type: cell-based; conditions: 20 μM, 24 hours, vehicle 31 ± 6
Text: The reduced glutathione (GSH) is a natural antioxidant in cells and plays important function responding the oxidative stress. The GSH levels will decrease with age, infection, poisoning, exogenous toxins and oxidative stress. The Sestrin2 (Sesn2) gene encodes a conserved antioxidant protein that is induced on oxidative stress and protects cells against reactive oxygen species. SOD2 is an antioxidant enzyme. The antioxidants are defense system for organ to prevent damage by free radical. In this example, the mouse embryonic fibroblasts (MEFs) were treated with compounds for 24 hours, and the GSH levels were analyzed using GSH kit (Nanjing Jiancheng Engineering Institute, China). […] Correspondingly, the expression levels of the antioxidant genes such as SOD2 and SESN2 increased in compounds treated MEFs (Table 26 and Table 28).

db/db mice = assay: Serum/blood metabolic parameters in high-fat diet fed db/db mice; assay type: in vivo, mouse; conditions: 50 mg/kg for 7 days
Text: as §1
as §2, with “actin levels. […]” for “actin levels.”

## Hedragonic acid
KK-Ay mice
  Serum Glucose (mg/dl): 161 ± 21^b mg/dl
[1]; 10 mg/kg (Tschimganine 20 mg/kg) i.p. five days, then APAP, compared to severe liver injury in control group
  Liver morphology by H&E staining (FIG. 1): almost normal liver morphology
[1]; mRNA by RT-PCR, vs vehicle control group, Table 5 (not given)
  expression levels of GPX1 and UGT1α1 in liver: significantly upregulated
[1]; vs vehicle control group, Table 5 (not given)
  activities of serum AST, ALT and LDH: dramatically lower
[2]
  clearance rate to superoxide anion radical: 58%±6.4%
[3]
  GSH (μM): 72 ± 9^a μM
db/db mice; vehicle 12 ± 3
  Serum Insulin (ng/ml): 4.65 ± 0.2^b ng/ml
db/db mice; vehicle 521 ± 54
  Serum Glucose (mg/dl): 334 ± 50^a mg/dl

Reference: US20180116993A1, “MODULATORS OF FARNESOID X RECEPTOR AND METHODS FOR THE USE THEREOF” (XIAMEN UNIVERSITY, priority 2015, published 2018)
